Data reported in patent publication US6737383B1, “Herbicidal oxadiazolidines” (priority 1999, dated 2004).

Tests used:
[1] = tested on: corn; assay: Test B pre/postemergence corn; format: in vivo, Zea mays
Method in brief: (§1)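 Test chemicals in a non-phytotoxic solvent mixture with surfactant were sprayed preemergence onto planted seeds and postemergence onto plants 2 to 18 cm tall (1- to 4-leaf stage). After twelve to sixteen days in a greenhouse, injury was visually rated against untreated controls from 0 (no effect) to 10 (complete control).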

[2] = tested on: soybean; assay: Test B pre/postemergence soybean; format: in vivo, Glycine max
Method in brief: as §1

[3] = tested on: duck salad; assay: Test B flood test duck salad; format: in vivo, Heteranthera limosa
Method in brief: (§2)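 Plants were grown to the 2-leaf stage before treatment with test chemical, then held in a greenhouse for twelve to sixteen days. Injury was visually rated against untreated controls on a 0–10 scale, where 0 is no effect and 10 is complete control.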

[4] = tested on: blackgrass; assay: Test B pre/postemergence blackgrass; format: in vivo, Alopecurus myosuroides
Method in brief: as §1

[5] = tested on: morningglory; assay: Test B pre/postemergence morningglory; format: in vivo, Ipomoea hederacea
Method in brief: as §1

[6] = tested on: smallflower flatsedge; assay: Test B flood test smallflower flatsedge; format: in vivo, Cyperus difformis
Method in brief: as §2

[7] = tested on: purple nutsedge; assay: Test B pre/postemergence purple nutsedge; format: in vivo, Cyperus rotundus
Method in brief: as §1

[8] = tested on: cocklebur; assay: Test B pre/postemergence cocklebur; format: in vivo, Xanthium strumarium
Method in brief: as §1

[9] = tested on: surinam grass; assay: Test B pre/postemergence surinam grass; format: in vivo, Brachiaria decumbens
Method in brief: as §1

[10] = tested on: wild oat; assay: Test B pre/postemergence wild oat; format: in vivo, Avena fatua
Method in brief: as §1

[11] = tested on: velvetleaf; assay: Test B pre/postemergence velvetleaf; format: in vivo, Abutilon theophrasti
Method in brief: as §1

[12] = tested on: rice; assay: Test B flood test rice; format: in vivo, Oryza sativa
Method in brief: as §2

[13] = tested on: bamyardgrass; assay: Test B flood test barnyardgrass; format: in vivo, Echinochloa crus-galli
Method in brief: as §2

[14] = tested on: sugar beet; assay: Test B pre/postemergence sugar beet; format: in vivo, Beta vulgaris
Method in brief: as §1

[15] = tested on: wheat; assay: Test B pre/postemergence wheat; format: in vivo, Triticum aestivum
Method in brief: as §1

[16] = tested on: crabgrass; assay: Test B pre/postemergence crabgrass; format: in vivo, Digitaria sanguinalis
Method in brief: as §1

[17] = tested on: rape; assay: Test B pre/postemergence rape; format: in vivo, Brassica napus
Method in brief: as §1

[18] = tested on: giant foxtail; assay: Test B pre/postemergence giant foxtail; format: in vivo, Setaria faberii
Method in brief: as §1

[19] = tested on: pigweed; assay: Test B pre/postemergence pigweed; format: in vivo, Amaranthus retroflexus
Method in brief: as §1

[20] = Postemergence, Rate 62 g/ha, scale 0 to 10, 0 is no effect, 10 is complete control
[21] = Postemergence, Rate 125 g/ha, scale of 0 to 10 where 0 is no effect and 10 is complete control
[22] = Postemergence, Rate 250 g/ha, scale of 0 to 10, 0 is no effect, 10 is complete control
[23] = Preemergence, Rate 62 g/ha, scale of 0 to 10 where 0 is no effect and 10 is complete control
[24] = Preemergence, Rate 125 g/ha, scale of 0 to 10 where 0 is no effect and 10 is complete control
[25] = Preemergence, Rate 500 g/ha, scale of 0 to 10 where 0 is no effect and 10 is complete control
[26] = Rate 500 g/ha, Postemergence, scale 0 to 10, 0 is no effect, 10 is complete control
[27] = Rate 62 g/ha, flood test species, Pre-emergence, visual evaluation after twelve to sixteen days
[28] = Rate 125 g/ha, under heading Pre-emergence, flood test species, visual evaluation after twelve to sixteen days
[29] = Rate 250 g/ha, Pre-emergence (flood test species), scale 0 to 10, 0 is no effect, 10 is complete control
[30] = Rate 500 g/ha, Pre-emergence section of Table B, 0 to 10 scale (0 no effect, 10 complete control)
[31] = Preemergence, Rate 250 g/ha, scale 0 to 10 (0 no effect, 10 complete control)

C#CC(C)n1c(=O)on(C(=O)N(c2ccc(F)cc2F)C(C)C)c1=O (racemic) [Compound 657]
Plant response rating, Corn [1, 20]: 1
Corn plant response rating [1, 21]: 1
Corn plant response rating [1, 22]: 1
Corn plant response rating [1, 23]: 0
Corn plant response rating [1, 24]: 1
Plant response rating, Corn [1, 25]: 8
Corn plant response rating [1, 26]: 1
Plant response rating, Soybean [2, 20]: 1
Soybean plant response rating [2, 21]: 1
Soybean plant response rating [2, 23]: 0
Soybean plant response rating [2, 24]: 0
Plant response rating, Soybean [2, 25]: 3
Plant response rating, Ducksalad (0 to 10 scale, 0 is no effect, 10 is complete control) [3, 27]: 0
Ducksalad plant response rating (0 to 10 scale, 0 is no effect, 10 is complete control) [3, 28]: 0
Ducksalad plant response rating [3, 29]: 0
Ducksalad plant response rating [3, 30]: 0
Plant response rating, Blackgrass [4, 20]: 6
Blackgrass plant response rating [4, 21]: 8
Blackgrass plant response rating [4, 22]: 8
Blackgrass plant response rating [4, 23]: 5
Blackgrass plant response rating [4, 24]: 9
Plant response rating, Blackgrass [4, 31]: 7
Plant response rating, Blackgrass [4, 25]: 9
Blackgrass plant response rating [4, 26]: 8
Plant response rating, Morningglory [5, 20]: 2
Morningglory plant response rating [5, 21]: 5
Morningglory plant response rating [5, 22]: 5
Morningglory plant response rating [5, 23]: 1
Morningglory plant response rating [5, 24]: 1
Plant response rating, Morningglory [5, 31]: 4
Plant response rating, Morningglory [5, 25]: 6
Morningglory plant response rating [5, 26]: 9
Plant response rating, S. Flatsedge (0 to 10 scale, 0 is no effect, 10 is complete control) [6, 27]: 0
S. Flatsedge plant response rating (0 to 10 scale, 0 is no effect, 10 is complete control) [6, 28]: 0
S. Flatsedge plant response rating [6, 29]: 0
S. Flatsedge plant response rating [6, 30]: 0
Nutsedge plant response rating [7, 21]: 3
Nutsedge plant response rating [7, 23]: 0
Nutsedge plant response rating [7, 24]: 0
Plant response rating, Nutsedge [7, 31]: 5
Plant response rating, Nutsedge [7, 25]: 6
Plant response rating, Cocklebur [8, 20]: 0
Cocklebur plant response rating [8, 21]: 2
Cocklebur plant response rating [8, 22]: 4
Cocklebur plant response rating [8, 23]: 0
Cocklebur plant response rating [8, 24]: 0
Plant response rating, Cocklebur [8, 31]: 2
Plant response rating, Cocklebur [8, 25]: 2
Cocklebur plant response rating [8, 26]: 5
Plant response rating, B. signalgrass [9, 20]: 0
Plant response rating, B. signalgrass [9, 21]: 2
B. signalgrass plant response rating [9, 22]: 4
B. signalgrass plant response rating [9, 23]: 2
B. signalgrass plant response rating [9, 24]: 8
Plant response rating, B. signalgrass [9, 31]: 9
Plant response rating, B. signalgrass [9, 25]: 10
B. signalgrass plant response rating [9, 26]: 6
Plant response rating, Wild oats [10, 20]: 1
Wild oats plant response rating [10, 21]: 2
Wild oats plant response rating [10, 23]: 3
Wild oats plant response rating [10, 24]: 6
Plant response rating, Wild oats [10, 31]: 8
Plant response rating, Wild oats [10, 25]: 8
Wild oats plant response rating [10, 26]: 2
Plant response rating, Velvetleaf [11, 20]: 2
Velvetleaf plant response rating [11, 21]: 3
Velvetleaf plant response rating [11, 23]: 3
Velvetleaf plant response rating [11, 24]: 4
Plant response rating, Velvetleaf [11, 31]: 8
Plant response rating, Velvetleaf [11, 25]: 10
Velvetleaf plant response rating [11, 26]: 4
Plant response rating, Rice (0 to 10 scale, 0 is no effect, 10 is complete control) [12, 27]: 0
Rice plant response rating (0 to 10 scale, 0 is no effect, 10 is complete control) [12, 28]: 0
Rice plant response rating [12, 29]: 0
Rice plant response rating [12, 30]: 0
Plant response rating, Barnyardgrass (0 to 10 scale, 0 is no effect, 10 is complete control) [13, 27]: 0
Barnyardgrass plant response rating (0 to 10 scale, 0 is no effect, 10 is complete control) [13, 28]: 0
Barnyardgrass plant response rating [13, 29]: 0
Barnyardgrass plant response rating [13, 30]: 0
Plant response rating, Sugarbeets [14, 20]: 0
Sugarbeets plant response rating [14, 21]: 0
Sugarbeets plant response rating [14, 23]: 7
Sugarbeets plant response rating [14, 24]: 7
Plant response rating, Sugarbeets [14, 31]: 10
Plant response rating, Sugarbeets [14, 25]: 9
Sugarbeets plant response rating [14, 26]: 3
Plant response rating, Wheat [15, 20]: 0
Wheat plant response rating [15, 21]: 0
Wheat plant response rating [15, 23]: 0
Wheat plant response rating [15, 24]: 0
Plant response rating, Wheat [15, 31]: 0
Plant response rating, Wheat [15, 25]: 7
Wheat plant response rating [15, 26]: 5
Plant response rating, Crabgrass [16, 20]: 3
Crabgrass plant response rating [16, 21]: 8
Crabgrass plant response rating [16, 22]: 9
Crabgrass plant response rating [16, 23]: 3
Crabgrass plant response rating [16, 24]: 10
Plant response rating, Crabgrass [16, 31]: 9
Plant response rating, Crabgrass [16, 25]: 9
Crabgrass plant response rating [16, 26]: 9
Plant response rating, Rape [17, 20]: 0
Rape plant response rating [17, 21]: 2
Rape plant response rating [17, 23]: 3
Rape plant response rating [17, 24]: 3
Plant response rating, Rape [17, 31]: 10
Plant response rating, Rape [17, 25]: 10
Rape plant response rating [17, 26]: 3
Plant response rating, Giant foxtail [18, 20]: 5
Giant foxtail plant response rating [18, 21]: 8
Giant foxtail plant response rating [18, 22]: 7
Giant foxtail plant response rating [18, 23]: 10
Giant foxtail plant response rating [18, 24]: 10
Plant response rating, Giant foxtail [18, 31]: 9
Plant response rating, Giant foxtail [18, 25]: 9
Giant foxtail plant response rating [18, 26]: 8
Plant response rating, Redroot pigweed [19, 20]: 0
Redroot pigweed plant response rating [19, 21]: 2
Redroot pigweed plant response rating [19, 23]: 7
Redroot pigweed plant response rating [19, 24]: 10
Plant response rating, Redroot pigweed [19, 31]: 10
Plant response rating, Redroot pigweed [19, 25]: 10
Redroot pigweed plant response rating [19, 26]: 7
